As usually defined, the mortality is the percentage killed.

The subject of the first series is Small Brown Planthopper (Laodelphax Striatellus). The series can be described thus: Test of insecticidal efficacy against Small Brown Planthopper (rice seedling dip). In kind it is in vivo. As to conditions: 192 h, read-out: corrected insect mortality judgement against small brown planthopper. On the procedure:
Test Example 2. Test of Insecticidal Efficacy Against Small Brown Planthopper (Laodelphax Striatellus)
The compound or salt thereof expressed by General Formula (1) according to the present invention was dispersed in water and the dispersion was diluted to 50 ppm in the form of a reagent, after which rice plants raised from seeds (variety: Nipponbare) were soaked in the reagent for 30 seconds and dried under wind, and then placed in glass test tubes, each of which was inoculated with 10 third-instar larvae of small brown planthoppers and sealed with cotton, and eight days after the inoculation, the number of live insects and that of dead insects were examined and the corrected insect mortality was calculated based on the formula below, and judgement was made according to the criteria below.
[formula] [formula] Criteria A—Corrected insect mortality: 100% B—Corrected insect mortality: 99% to 90% C—Corrected insect mortality: 89% to 80% D—Corrected insect mortality: 79% to 50%
In the case of `COCN1C(=O)c2nn(-c3cccnc3)cc2Oc2ncccc21` [Compound No. 1-1, 9-(methoxymethyl)-2-(pyridin-3-yl)-2H-pyrazolo[3,4-f]pyrido[2,3-b][1,4]oxazepine-10(9H)-one], the mortality at 50 ppm came out at 100%.

In another series the test system is zebrafish embryo. The experiment in a line: Teratogenicity test using zebrafish embryo. In kind it is in vivo. Conditions: zebrafish embryos exposed from 6 hours after fertilization, cultured at 28° C. for five days, 0.1% dimethyl sulfoxide. The procedure: Test Example 4. Teratogenicity Test Using Zebrafish Embryo
Fertilized eggs obtained by mating zebrafish were cultured in a medium (0.3× Danieau's solution) at 28° C. until 6 hours after fertilization. Thereafter, the embryo was transferred to a medium into which the compound expressed by General Formula (1) according to the present invention dissolved in dimethyl sulfoxide was added, and cultured at 28° C. for five days. The concentration of dimethyl sulfoxide in the medium was 0.1%. 12 embryos were tested in each test concentration of the present invention.
Observation sites: notochord, tail, somite, eye, otolith, jaw, heart, blood vessel, abdomen, fin, etc.
From the results of these observations, the presence or absence of teratogenicity risk of the compound expressed by General Formula (1) according to the present invention and six compounds (Compound Nos. 4-10, 1-67, 1-1, 8-125, and 8-22, and a compound encompassed by the claims of Patent Literature 1 (Comparative Compound 4)) disclosed in the aforementioned Patent Literature 1 as the comparative compounds was determined.
It is noted that the teratogenicity test using zebrafish embryo is known to have good high predictivity to the teratogenicity test using the mammals (Reference Literature: Reproductive Toxicology 2012, (33), 155-164).
In the case of `CN1C(=O)c2nn(-c3cccnc3)cc2Oc2ncc(C(F)(F)F)cc21` [Comparative Compound 1], the Teratogenicity risk entry is “Yes”. On the same count and under the same terms, for `COCN1C(=O)c2nn(-c3cccnc3)cc2Oc2ccccc21` [Comparative Compound 2] the value was “Yes”. Consider `O=C1Nc2ccccc2Oc2cn(-c3cccnc3)nc21` [Comparative Compound 3], for which the Teratogenicity risk entry is “Yes”. `COCN1C(=O)c2nn(-c3cccnc3)cc2Oc2cc(OC(F)(F)F)ccc21` [Comparative Compound 4]: the Teratogenicity risk entry is recorded as “Yes”.

Take `CN1C(=O)c2nn(-c3cccnc3)cc2Oc2cc(OC(F)(F)F)ccc21` [Comparative Compound 5]: the Teratogenicity risk entry is listed as “Yes”. On the same count and under the same terms, the entry for `COCN1C(=O)c2nn(-c3cccnc3)cc2Oc2c(F)cccc21` [Comparative Compound 6] is “Yes”; for `COCN1C(=O)c2nn(-c3cccnc3)cc2Oc2ncccc21` [Compound No. 1-1, 9-(methoxymethyl)-2-(pyridin-3-yl)-2H-pyrazolo[3,4-f]pyrido[2,3-b][1,4]oxazepine-10(9H)-one] it is “No”.

Source of the values: patent publication US12302903B2, “Oxazepinone derivative, agricultural/horticultural insecticide containing the same, and method for using the same” (priority 2019, dated 2025).
